Reference: US11077090B2, “Compounds and compositions and uses thereof” (Sunovion Pharmaceuticals Inc., priority 2016, dated 2021)

What was measured:
male Sprague-Dawley rats = test: Stress induced hyperthermia (SIH) assay; format: in vivo; set-up: key: −: No change in Delta T ([…]T); +: Significant decrease in Delta T ([…]T) (P < 0.05 vs vehicle)
Source text: Stress-induced hyperthermia (SIH), mediated by the autonomic nervous system, is well known to occur prior to and during exposure to stress and/or anxiety-inducing situations. In many human anxiety disorders, it occurs as an integral part of the pathology and is often considered a representative symptom of the disease, e.g. in generalized anxiety disorder as defined in DSM-IV. In rodents, acute administration of anxiolytic drugs, such as buspirone or chlordiazepoxide (CDP), are known to reduce the SIH response to stressors such as handling, noise, heat, novelty, or pain. The test involves two measures of rectal temperature repeated in the same animal with a 10-minute interval. On the day prior to testing, male Sprague-Dawley rats from Envigo (n=10 per group) were brought to the experimental room approximately one hour before scheduled lights out and singly housed overnight with food and water ad libitum. On the morning of the experiment, animals were first injected with either vehicle or test compound orally by gavage, or CDP (10 mg/kg, i.p.). One hour following injection, each animal was removed from the holding cage and held in a supine position while the rectal temperature was measured by slowly inserting a rectal probe into the animal's rectum at a length of approximately 0.5 cm. The rectal probe was attached to a PhysiTemp digital thermometer (Fisher Scientific) which provides temperature readings at 0.1° C. accuracy. The probe remained inside the animal for approximately 5 seconds or until body temperature reaches stability. This temperature was recorded as the baseline rectal temperature (T1). The animal was immediately placed back to the holding cage and after a 10-min interval the second rectal temperature (T2) was taken using the same procedure as in measuring T1. Before each insertion, the rectal probe was cleaned with an alcohol pad and lubricated with sterile K-Y jelly. All SIH studies were conducted between 8:00-11:00 a.m. The SIH response was calculated as the difference in temperature between the second and first temperature reading (Delta T, […]T). A reduction in […]T relative to the vehicle condition indicates an anxiolytic drug-like response.

Male C57Bl/6J mice = test: Marble burying test; format: in vivo; set-up: key: −: No reduction in number of marbles buried; +: Significant reduction in number of marbles buried (P < 0.05 vs vehicle); details: 1 mg/kg (i.p.)
Procedure: The marble burying assay is used to evaluate the anxiolytic activity of a test compound. After placement in a novel cage containing glass marbles, mice will bury the marbles. Acute administration of anxiolytic agents, as well as antidepressants, decrease this activity at non-sedating doses. Male C57Bl/6J mice from Jackson Laboratories were used in this study and were acclimatized to the experimental room for at least 1 hour prior to testing. Mice (n=10 per group) were administered sterile water or test compound intraperitoneally (i.p.) or orally by gavage (p.o.), or the positive control chlordiazepoxide (15 mg/kg, i.p.), in 10 mL/kg injection volumes, and returned to their home cages for a 30-minute pretreatment period. The mice were then placed individually in clean cages, containing hard wood bedding and twenty black marbles placed in spaced rows of 4×5. After a 30-minute test session, the number of buried marbles was counted. A marble was considered buried if it was pushed at least two thirds into the bedding. Locomotor activity was monitored by measuring the distance traveled using an overhead camera and Video Tracker Software (ViewPoint Life Sciences Software, France). A reduction in the number of marbles buried relative to the vehicle condition indicates an anxiolytic drug-like effect.

[1] = tested on: extracellular concentrations of neurotransmitters (DA, 5-HT, NE, ACh) in the prefrontal cortex (PFC); test: In vivo microdialysis of the prefrontal cortex; set-up: key: −: No change in extracellular concentration (P < 0.05 vs vehicle); +: Significant increase in extracellular concentration (P < 0.05 vs vehicle); details: mice
Source text: (§1) In vivo microdialysis is a biological sampling technique used to evaluate the extracellular concentrations of neurotransmitters in specific brain regions following administration of a test compound to animals. Dysfunctions of brain neurotransmitter systems, such as dopamine (DA), norepinephrine (NE), serotonin (5-HT) and/or acetylcholine (ACh), have been linked to cognitive deficits (e.g., memory impairment, inattention, etc.), which may be observed in human aging, Alzheimer's disease (AD) and Attention Deficit Hyperactivity Disorder (ADHD). Drugs that increase extracellular concentrations of DA, NE, 5-HT and/or ACh in the prefrontal cortex (PFC), such as donepezil and methylphenidate, can reverse cognitive deficits in humans and animals.
(§2) Adult male C57Bl/6 mice (n=6 per group) from Jackson Laboratories were anesthetized using isoflurane (2%, 800 mL/min O2). Bupivacaine/epinephrine was used for local anesthesia and carprofen was used for peri-/post-operative analgesia. The animals were placed in a stereotaxic frame (Kopf instruments, USA) and I-shaped microdialysis probes (polyacrylonitril membrane, BrainLink, the Netherlands) were inserted into the PFC (2 mm exposed membrane; coordinates for the tips of the probes: posterior (AP)=+2.0 mm to bregma, lateral (L)=−0.5 mm to midline and ventral (V)=−3.3 mm to dura, the toothbar set at 0.0 mm) and the NAcc (coordinates for the tips of the probes: posterior (AP)=+0.8 mm to bregma, lateral (L)=+0.9 mm to midline and ventral (V)=−4.2 mm to dura, the toothbar set at 0.0 mm (Paxinos and Franklin, 2001)). After surgery, animals were housed individually in cages and provided food and water ad libitum. In vivo microdialysis experiments were performed one day after surgery. On the day of the experiment, the microdialysis probes were connected with flexible PEEK tubing to a microperfusion pump (Harvard PHD 2000 Syringe pump, Holliston, Mass. or similar). Microdialysis probes were perfused with artificial cerebrospinal fluid (aCSF) containing 147 mM NaCl, 3.0 mM KCl, 1.2 mM CaCl2 and 1.2 mM MgCl2, at a flow rate of […]. Microdialysis samples were collected for 30 minute periods by an automated fraction collector (820 Microsampler, Univentor, Malta or similar) into polystyrene mini-vials already containing 15 μL of 0.02 M formic acid (FA) and 0.04% ascorbic acid in ultrapurified H2O. Four basal samples were collected before the administration of vehicle or test compound (i.p., 5 mL/kg injection volumes). Samples were collected for an additional 240 min following vehicle or compound administration. All the dialysis samples were stored at −80° C. awaiting analysis. After the experiment, the mice were sacrificed and brain tissue was collected for probe verification. Each dialysis sample was analyzed for concentrations of DA, NE, 5-HT and ACh as determined by HPLC with tandem mass spectrometry (MS/MS) detection using labeled isotopes of the analytes of interest as internal standards. Data was expressed as a percentage of basal output, calculated by dividing each post-dose time point with the average basal output=100%. An increase in the post-dose percent basal output of DA, NE, 5-HT and/or ACh in the PFC relative to the vehicle condition indicates a potential cognition-enhancing drug-like response. Graphical representations of the observed changes in neurotransmitter concentrations are shown in the indicated Figures.

[2] = tested on: extracellular concentrations of neurotransmitters (DA, 5-HT, NE, ACh) in the nucleus accumbens (NAcc); test: In vivo microdialysis of the nucleus accumbens; set-up: key: −: No change in extracellular concentration (P < 0.05 vs vehicle); +: Significant increase in extracellular concentration (P < 0.05 vs vehicle); details: mice
Source text: as §1, §2

SMILES	Delta T ([…]T) (male Sprague-Dawley rats; 0.3 mg/kg PO)	Marbles Buried (Male C57Bl/6J mice)	PFC [5-HT] (FIG. 2) ([1]; 10 mg/kg IP)	PFC [ACh] (FIG. 4) ([1]; 10 mg/kg IP)	PFC [DA] (FIG. 1) ([1]; 10 mg/kg IP)	PFC [NE] (FIG. 3) ([1]; 10 mg/kg IP)	NAcc [5-HT] (FIG. 6) ([2]; 10 mg/kg IP)	NAcc [ACh] (FIG. 8) ([2]; 10 mg/kg IP)	NAcc [DA] (FIG. 5) ([2]; 10 mg/kg IP)	NAcc [NE] (FIG. 7) ([2]; 10 mg/kg IP)	Delta T ([…]T) (male Sprague-Dawley rats; 3 mg/kg PO)	PFC [5-HT] (FIG. 2) ([1]; 30 mg/kg IP)	PFC [ACh] (FIG. 4) ([1]; 30 mg/kg IP)	PFC [DA] (FIG. 1) ([1]; 30 mg/kg IP)	PFC [NE] (FIG. 3) ([1]; 30 mg/kg IP)	NAcc [5-HT] (FIG. 6) ([2]; 30 mg/kg IP)	NAcc [ACh] (FIG. 8) ([2]; 30 mg/kg IP)	NAcc [DA] (FIG. 5) ([2]; 30 mg/kg IP)	NAcc [NE] (FIG. 7) ([2]; 30 mg/kg IP)	Delta T ([…]T) (male Sprague-Dawley rats; 1 mg/kg PO)
C[C@@H]1OCc2ccccc2[C@H]1N (single isomer, unassigned) [Compound 152]	−	−	+	+	+	+	+	−	−	+										
Cc1cccc2c1[C@@H](N)[C@@H](C)OC2 (single isomer, unassigned) [Compound 170]		−									−	−	−	+	+	−	−	−	+	
Cc1ccc2c(c1)[C@H](N)[C@H](C)OC2 [Compound 157]		−										+	−	+	+	−	−	−	+	−
